Tested on: Th17 polarization of human peripheral blood mononuclear cells
Assay: Th17 polarization assay (IL-17A positive cells by flow cytometry)
Type: cell-based
Settings: PBMC, 10 nM compound, 48 hours, triplicates, average of 50% over the listed compounds, p<0.05, read-out: inhibition of the polarization of Th17 cells (percentage of IL17A positive cells relative to total CD4 T cells)
Description: This assay measures the phenotypic effects of the compounds on the production of interleukin 17A (IL-17A). IL-17A genes are regulated by ROR response elements (ROREs). Compounds that bind to ROR (LBD) can inhibit the binding of RORγ to ROREs DNA site. Compounds can also reduce the effect of the binding which is enhanced by the binding of the co-activator protein.
Peripheral blood mononuclear cells were isolated by density gradient centrifugation. The principle of this method is that components of the blood have different densities and can be separated according to their relative density. […] This medium is denser than lymphocytes, monocytes, and platelets and they remain about it, but less dense than granulocytes and erythrocytes, which will drop below it. […] Four layers were form, each containing different cell types—the uppermost layer contain containing plasma was removed by pipetting. PBMCs layer and is a characteristically white and cloudy “blanket” was gently removed using a 10 ml pipette and added to warm medium or PBS (1:3) to wash off any remaining platelets and centrifuged at 400×g for 10 minutes. The pelleted cells were counted, and the percentage viability estimated using Trypan blue staining. Cells were frozen for long-term storage.
To preserve PBMCs at ultra-low temperatures in liquid nitrogen, dimethyl sulfoxide (DMSO) was used as a cryoprotectant to reduce the formation of ice crystals and prevent cell damage. To freeze, freshly isolated PBMCs are resuspended to 5×10^6 cells/mL in freezing medium containing 10% DMSO and 90% fetal bovine serum (FBS) and were placed inside a freezing container at −80° C. overnight to allow gradual and even cooling. The following day, samples were moved to a liquid nitrogen tank for long-term storage.
500 ml bottle of RPMI at 4° C. was opened in a biological safety cabinet. Half of the media was transferred to a 500 ml 0.22 um bottle top filter (with the vacuum turned off). 59 ml filtered heat inactivated fetal bovine serum (FBS), 6 ml penicillin-streptomycin solution (100×), 6.0 ml of L-glutamine (100×), 6.0 ml MEM non-essential amino acids 100×, 6.0 ml of sodium pyruvate were added and the volume was brought up to 500 ml by adding the RPMI. Culture media were stored in 4° C. and used for duration of two weeks.
PBMCs were thawed carefully to avoid loss of cell viability and functionality. Samples are removed from liquid nitrogen and placed on ice, after which they were thawed in a 37° C. water bath. Once there is a small crystal of ice left in the bottom on the tubes, 500 μL warm complete RPMI medium supplemented with 10% FBS, 1% penicillin-streptomycin, and L-glutamine was added dropwise. The cells were then transferred to Falcon tubes containing 10 mL warm medium and centrifuged for 10 minutes at 400×g to wash off the toxic DMSO. This wash step was repeated, and the cell pellet was then resuspended in medium to count as before. Once thawed, PBMCs was rested overnight to remove any apoptotic cell this increases viability and improves functionality and involves incubating the freshly thawed PBMCs in supplemented medium for approximately 18 hours. After this resting period, cells were washed to be used in culture.
Culture medium was changed every other day for the whole duration. Compounds were added to the polarized cells at day 12 for 48 hours. At measurement day, CD3/CD28 beads were removed and cells were treated with cell stimulation cocktail for 5 hours at the end of 48 hours incubation. Plates were centrifuged at 400×g for 10 minutes. Supernatant was collected for further testing and cells were resuspended in 1×PBS and washed twice at 400×g before staining for surface and intracellular markers.
The dye was used in 1:1000 concentration in 1×PBS. The cells were incubated in dye solution for 30 minutes in 4° C.

How did the inhibition at 0.01 µM turn out when CCC1CCc2c(sc(NC(=O)c3ccnn3C)c2C(=O)Nc2ccccc2C)C1 (stereo not drawn) [Compound 4, N-(6-ethyl-3-{[(2-methylphenyl)amino]carbonyl}-4,5,6,7-tetrahydro-1-benzothien-2-yl)-1-methyl-1H-pyrazole-5-carboxamide] was run?
The inhibition at 0.01 µM was 30 to 70%.

With Cc1cnc(S(C)(=O)=O)nc1C(=O)Nc1sc2c(c1C(=O)c1ccccc1)CCCC2 [Compound 23, N-(3-benzoyl-4,5,6,7-tetrahydrobenzo[b]thiophen-2-yl)-5-methyl-2-(methylsulfonyl)pyrimidine-4-carboxamide] as the compound, how does the inhibition at 0.01 µM read?
Its inhibition at 0.01 µM is 30 to 70%.

With CC1CCN(CC(=O)Nc2sc3c(c2C(=O)NCc2ccccc2)CCCC3)CC1 [Compound 11, N-benzyl-2-{[(4-methyl-1-piperidinyl)acetyl]amino}-4,5,6,7-tetrahydro-1-benzothiophene-3-carboxamide] as the compound, how does the inhibition at 0.01 µM read?
The inhibition at 0.01 µM was 30 to 70%.

Which inhibition at 0.01 µM does the source give for CN1CCN(C(=O)c2c(NC(=O)c3ccccc3F)sc3c2CCC(C(C)(C)C)C3)CC1 (stereo not drawn) [Compound 5, N-{6-tert-butyl-3-[(4-methyl-1-piperazinyl)carbonyl]-4,5,6,7-tetrahydro-1-benzothien-2-yl}-2-fluorobenzamide] here?
Its inhibition at 0.01 µM is 30 to 70%.

How did the inhibition at 0.01 µM turn out when Cc1ccnc(SCC(=O)Nc2sc3c(c2C(=O)NCc2ccccc2)CCCC3)n1 [Compound 8, N-benzyl-2-({[(4-methyl-2-pyrimidinyl)thio]acetyl}amino)-4,5,6,7-tetrahydro-1-benzothiophene-3-carboxamide] was run?
The inhibition at 0.01 µM was 30 to 70%.

Which inhibition at 0.01 µM does the source give for C[C@@H](C#N)NC(=O)c1c(NC(=O)c2cccnc2)sc2c1CCCC2 [Compound 20, (S)—N-(3-((1-cyanoethyl)carbamoyl)-4,5,6,7-tetrahydro-benzo[b]thiophen-2-yl)nicotinamide] here?
The inhibition at 0.01 µM was 30 to 70%.

Which inhibition at 0.01 µM does the source give for O=C(CN1CCCCC1)Nc1sc2c(c1C(=O)NCc1ccccc1)CCCC2 [Compound 9, N-benzyl-2-[(1-piperidinylacetyl)amino]-4,5,6,7-tetrahydro-1-benzothiophene-3-carboxamide] here?
Its inhibition at 0.01 µM is 30 to 70%.

How did the inhibition at 0.01 µM turn out when Cn1cnc(CNC(=O)c2c(NC(=O)c3cccnc3)sc3c2CCCC3)n1 [Compound 19, N-(3-(((1-methyl-1H-1,2,4-triazol-3-yl)methyl)carbamoyl)-4,5,6,7-tetrahydrobenzo[b]thiophen-2-yl)nicotinamide] was run?
Its inhibition at 0.01 µM is 30 to 70%.

For CN1CCN(CC(=O)Nc2sc3c(c2C(=O)NCc2ccccc2)CCCC3)CC1 [Compound 10, N-benzyl-2-{[(4-methyl-1-piperazinyl)acetyl]amino}-4,5,6,7-tetrahydro-1-benzothiophene-3-carboxamide], which inhibition at 0.01 µM is on record?
The inhibition at 0.01 µM was 30 to 70%.

For CC1CCCN1C(=O)c1c(NC(=O)c2cccnc2)sc2c1CCCC2 (stereo not drawn) [Compound 12, N-(3-(2-methylpyrrolidine-1-carbonyl)-4,5,6,7-tetrahydro-benzo[b]thiophen-2-yl)nicotinamide], which inhibition at 0.01 µM is on record?
The inhibition at 0.01 µM was 30 to 70%.

With CC1CCc2c(sc(NC(=O)c3ccccc3F)c2C(=O)N2CCN(C)CC2)C1 (stereo not drawn) [Compound 6, 2-fluoro-N-{6-methyl-3-[(4-methyl-1-piperazinyl)carbonyl]-4,5,6,7-tetrahydro-1-benzothien-2-yl}benzamide] as the compound, how does the inhibition at 0.01 µM read?
Its inhibition at 0.01 µM is 30 to 70%.

For CSc1ncc(Cl)c(C(=O)Nc2sc3c(c2C(=O)NC2CCS(=O)(=O)C2)CCC(C)C3)n1 (stereo not drawn) [Compound 3, 5-chloro-N-(3-{[(1,1-dioxidotetrahydro-3-thienyl)amino]-carbonyl}-6-methyl-4,5,6,7-tetrahydro-1-benzothien-2-yl)-2-(methylthio)-4-pyrimidine-carboxamide], which inhibition at 0.01 µM is on record?
Its inhibition at 0.01 µM is 30 to 70%.

With O=C(NCc1ccccc1)c1c(NC(=O)C(F)(F)F)sc2c1CCCC2 [Compound 7, N-benzyl-2-[(trifluoroacetyl)amino]-4,5,6,7-tetrahydro-1-benzothiophene-3-carboxamide] as the compound, how does the inhibition at 0.01 µM read?
Its inhibition at 0.01 µM is 30 to 70%.

With CSc1ncc(Cl)c(C(=O)Nc2sc3c(c2C(=O)NCc2ccccc2)CCCC3)n1 [Compound 2, N-(3-(benzylcarbamoyl)-4,5,6,7-tetrahydrobenzo[b]thiophen-2-yl)-5-chloro-2-(methylthio)pyrimidine-4-carboxamide] as the compound, how does the inhibition at 0.01 µM read?
The inhibition at 0.01 µM was 30 to 70%.

How did the inhibition at 0.01 µM turn out when CCC1CCN(C(=O)c2c(NC(=O)c3cccnc3)sc3c2CCCC3)C1 (stereo not drawn) [Compound 15, N-(3-(3-ethylpyrrolidine-1-carbonyl)-4,5,6,7-tetrahydro-benzo[b]thiophen-2-yl)nicotinamide] was run?
Its inhibition at 0.01 µM is 30 to 70%.

With Cn1ccnc1SCC(=O)Nc1sc2c(c1C(=O)NCc1ccccc1)CCCC2 [Compound 16, N-benzyl-2-(2-((1-methyl-1H-imidazol-2-yl)thio)acetamido)-4,5,6,7-tetrahydrobenzo[b]thiophene-3-carboxamide] as the compound, how does the inhibition at 0.01 µM read?
The inhibition at 0.01 µM was 30 to 70%.

With C[C@@H]1CCN(C(=O)c2c(NC(=O)c3cccnc3)sc3c2CCCC3)[C@H](C)C1 [Compound 13, N-(3-((2R,4R)-2,4-dimethylpiperidine-1-carbonyl)-4,5,6,7-tetrahydrobenzo[b]thiophen-2-yl)nicotinamide] as the compound, how does the inhibition at 0.01 µM read?
Its inhibition at 0.01 µM is 30 to 70%.

O=C(Nc1sc2c(c1C(=O)c1ccccc1)CCCC2)c1cnccn1 [Compound 22, N-(3-benzoyl-4,5,6,7-tetrahydrobenzo[b]thiophen-2-yl)pyrazine-2-carboxamide] was tested. Which inhibition at 0.01 µM did it give?
Its inhibition at 0.01 µM is 30 to 70%.

Reference: US12390461B2, “Modulators of RAR-related orphan receptors (RORs)” (11949098 CANADA INC., priority 2018, dated 2025)
